Data taken from ChEMBL document CHEMBL1909046, “DrugMatrix in vitro pharmacology data”.

Assays:
[1] = target: T1, Alpha-1D adrenergic receptor (Homo sapiens, UniProt P25100); format: cell membranes, HEK293, Membrane; note: in other assays of this panel Not Active means under 50% inhibition at 10 µM
T1 sequence (P25100 whole entry): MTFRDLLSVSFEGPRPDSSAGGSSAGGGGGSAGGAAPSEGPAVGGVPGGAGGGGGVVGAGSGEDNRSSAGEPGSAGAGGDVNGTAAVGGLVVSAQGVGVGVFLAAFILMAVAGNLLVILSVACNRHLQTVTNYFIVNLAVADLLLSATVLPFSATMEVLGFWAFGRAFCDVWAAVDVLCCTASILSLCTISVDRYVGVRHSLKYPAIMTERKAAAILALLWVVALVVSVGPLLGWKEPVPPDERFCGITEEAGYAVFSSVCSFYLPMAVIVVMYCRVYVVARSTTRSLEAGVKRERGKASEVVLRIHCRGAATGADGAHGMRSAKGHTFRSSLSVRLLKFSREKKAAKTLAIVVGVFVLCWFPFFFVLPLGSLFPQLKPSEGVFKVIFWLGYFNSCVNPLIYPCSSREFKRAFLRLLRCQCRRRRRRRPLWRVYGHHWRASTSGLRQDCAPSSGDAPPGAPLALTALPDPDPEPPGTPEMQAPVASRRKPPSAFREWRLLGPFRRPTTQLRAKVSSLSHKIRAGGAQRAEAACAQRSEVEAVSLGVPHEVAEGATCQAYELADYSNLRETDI

[2] = target: T2, B2 bradykinin receptor (Homo sapiens, UniProt P30411); format: cell membranes, Membrane; conditions: chem-1; note: in other assays of this panel Not Active means under 50% inhibition at 10 µM
T2 sequence (P30411 whole entry): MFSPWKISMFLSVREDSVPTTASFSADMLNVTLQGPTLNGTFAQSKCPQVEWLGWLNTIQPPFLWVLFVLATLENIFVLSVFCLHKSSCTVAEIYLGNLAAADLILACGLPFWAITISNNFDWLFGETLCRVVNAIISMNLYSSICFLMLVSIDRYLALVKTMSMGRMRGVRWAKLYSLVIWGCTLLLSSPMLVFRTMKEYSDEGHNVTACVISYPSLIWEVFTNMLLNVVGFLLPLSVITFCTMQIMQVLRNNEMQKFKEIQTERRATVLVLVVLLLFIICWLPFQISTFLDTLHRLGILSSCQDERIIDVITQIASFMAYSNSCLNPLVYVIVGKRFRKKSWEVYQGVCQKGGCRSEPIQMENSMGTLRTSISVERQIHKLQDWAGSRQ

[3] = target: 5-hydroxytryptamine receptor 2B (Homo sapiens, UniProt P41595); format: cell membranes, CHO-K1, Membrane; note: in other assays of this panel Not Active means under 50% inhibition at 10 µM
[4] = target: T3, Endothelin-1 receptor (Homo sapiens, UniProt P25101); format: cell membranes, Membrane; conditions: cho-k1; note: in other assays of this panel Not Active means under 50% inhibition at 10 µM
T3 sequence (P25101 whole entry): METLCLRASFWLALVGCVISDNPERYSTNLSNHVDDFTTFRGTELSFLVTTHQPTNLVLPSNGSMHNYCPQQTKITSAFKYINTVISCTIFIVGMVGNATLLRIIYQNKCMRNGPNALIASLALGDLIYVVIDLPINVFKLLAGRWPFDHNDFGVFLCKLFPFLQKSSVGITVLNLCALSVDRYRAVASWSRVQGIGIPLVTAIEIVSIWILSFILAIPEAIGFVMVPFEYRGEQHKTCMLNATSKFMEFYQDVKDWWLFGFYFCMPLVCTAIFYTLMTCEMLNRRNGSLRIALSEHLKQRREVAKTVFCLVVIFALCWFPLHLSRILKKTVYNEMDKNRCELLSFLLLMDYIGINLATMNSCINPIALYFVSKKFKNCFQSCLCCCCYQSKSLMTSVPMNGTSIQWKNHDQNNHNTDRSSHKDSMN

[5] = target: Nitric oxide synthase 1 (Rattus norvegicus, UniProt P29476); format: tissue-based, Cerebellum; note: in other assays of this panel Not Active means under 50% inhibition at 10 µM
[6] = DRUGMATRIX: Phosphodiesterase PDE4 enzyme inhibition (substrate: [3H]cAMP + cAMP); conditions: u-937, Not Active = under 50% inhibition at 10 µM
[7] = target: Receptor tyrosine-protein kinase erbB-2 (Homo sapiens, UniProt P04626); assay: biochemical; format: cell-based, Insect cells
[8] = target: Adenosine receptor A2a (Homo sapiens, UniProt P29274); assay: DRUGMATRIX: Adenosine A2A radioligand binding (ligand: […]); format: cell membranes, HEK293, Membrane; conditions: hek293; Not Active = under 50% inhibition at 10 µM
[9] = target: T4, Cytochrome P450 2A6 (Homo sapiens, UniProt P11509); conditions: bti-tn-5b1-4; note: in other assays of this panel Not Active means under 50% inhibition at 10 µM
T4 sequence (P11509 whole entry): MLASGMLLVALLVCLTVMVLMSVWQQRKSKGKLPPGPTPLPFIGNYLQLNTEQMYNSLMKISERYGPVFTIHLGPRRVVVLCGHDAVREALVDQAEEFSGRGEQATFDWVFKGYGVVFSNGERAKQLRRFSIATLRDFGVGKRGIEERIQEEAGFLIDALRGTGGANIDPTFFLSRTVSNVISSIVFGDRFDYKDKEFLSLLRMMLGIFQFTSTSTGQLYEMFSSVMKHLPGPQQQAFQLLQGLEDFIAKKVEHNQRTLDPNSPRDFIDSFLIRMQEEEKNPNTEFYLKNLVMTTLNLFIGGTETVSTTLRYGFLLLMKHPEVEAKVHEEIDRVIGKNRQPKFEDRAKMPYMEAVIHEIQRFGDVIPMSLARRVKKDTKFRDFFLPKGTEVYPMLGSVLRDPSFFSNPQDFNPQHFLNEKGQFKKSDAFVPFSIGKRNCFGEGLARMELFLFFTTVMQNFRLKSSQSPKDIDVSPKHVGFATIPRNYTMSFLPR

Receptor tyrosine-protein kinase erbB-2, sequence (P04626 whole entry): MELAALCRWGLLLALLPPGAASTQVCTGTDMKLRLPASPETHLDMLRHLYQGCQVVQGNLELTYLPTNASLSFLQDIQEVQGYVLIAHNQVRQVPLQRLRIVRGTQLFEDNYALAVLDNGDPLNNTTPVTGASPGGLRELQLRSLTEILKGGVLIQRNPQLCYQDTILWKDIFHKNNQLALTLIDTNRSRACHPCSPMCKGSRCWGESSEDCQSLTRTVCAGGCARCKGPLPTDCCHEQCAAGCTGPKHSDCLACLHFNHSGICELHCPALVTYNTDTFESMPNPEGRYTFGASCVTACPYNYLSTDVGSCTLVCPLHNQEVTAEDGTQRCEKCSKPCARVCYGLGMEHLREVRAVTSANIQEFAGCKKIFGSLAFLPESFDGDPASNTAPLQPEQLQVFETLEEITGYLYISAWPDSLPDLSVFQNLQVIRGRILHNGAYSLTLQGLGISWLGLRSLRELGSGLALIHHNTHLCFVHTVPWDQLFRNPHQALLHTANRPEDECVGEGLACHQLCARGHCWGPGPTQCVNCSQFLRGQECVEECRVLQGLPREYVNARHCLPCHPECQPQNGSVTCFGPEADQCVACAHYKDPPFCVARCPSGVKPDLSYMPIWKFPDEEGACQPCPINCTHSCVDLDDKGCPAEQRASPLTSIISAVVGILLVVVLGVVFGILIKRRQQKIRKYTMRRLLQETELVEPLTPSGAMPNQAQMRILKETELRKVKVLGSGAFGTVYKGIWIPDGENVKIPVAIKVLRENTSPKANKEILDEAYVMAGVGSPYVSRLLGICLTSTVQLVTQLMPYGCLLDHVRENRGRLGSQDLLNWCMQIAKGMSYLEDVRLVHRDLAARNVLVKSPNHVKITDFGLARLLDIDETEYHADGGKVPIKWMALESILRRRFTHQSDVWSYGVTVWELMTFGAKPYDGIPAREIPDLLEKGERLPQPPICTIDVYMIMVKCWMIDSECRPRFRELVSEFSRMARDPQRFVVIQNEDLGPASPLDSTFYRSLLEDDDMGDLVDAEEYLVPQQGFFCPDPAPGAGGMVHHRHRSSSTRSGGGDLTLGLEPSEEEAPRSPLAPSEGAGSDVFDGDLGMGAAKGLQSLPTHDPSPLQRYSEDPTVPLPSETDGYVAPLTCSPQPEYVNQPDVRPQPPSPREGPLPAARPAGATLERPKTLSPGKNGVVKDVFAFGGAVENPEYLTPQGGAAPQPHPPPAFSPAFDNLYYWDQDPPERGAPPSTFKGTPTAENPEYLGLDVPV
Adenosine receptor A2a, sequence (P29274 whole entry): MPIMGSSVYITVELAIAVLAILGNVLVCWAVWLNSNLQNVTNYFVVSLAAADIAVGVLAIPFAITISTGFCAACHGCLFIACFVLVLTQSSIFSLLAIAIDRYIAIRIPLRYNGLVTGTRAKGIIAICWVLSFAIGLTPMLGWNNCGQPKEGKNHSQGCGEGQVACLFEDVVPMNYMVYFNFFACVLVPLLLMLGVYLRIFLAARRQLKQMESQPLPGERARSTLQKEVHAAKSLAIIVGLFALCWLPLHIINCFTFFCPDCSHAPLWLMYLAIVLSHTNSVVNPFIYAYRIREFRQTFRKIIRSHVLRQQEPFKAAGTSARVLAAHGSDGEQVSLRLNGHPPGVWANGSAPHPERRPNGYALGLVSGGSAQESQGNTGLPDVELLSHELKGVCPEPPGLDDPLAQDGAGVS
Nitric oxide synthase 1, sequence (P29476 whole entry): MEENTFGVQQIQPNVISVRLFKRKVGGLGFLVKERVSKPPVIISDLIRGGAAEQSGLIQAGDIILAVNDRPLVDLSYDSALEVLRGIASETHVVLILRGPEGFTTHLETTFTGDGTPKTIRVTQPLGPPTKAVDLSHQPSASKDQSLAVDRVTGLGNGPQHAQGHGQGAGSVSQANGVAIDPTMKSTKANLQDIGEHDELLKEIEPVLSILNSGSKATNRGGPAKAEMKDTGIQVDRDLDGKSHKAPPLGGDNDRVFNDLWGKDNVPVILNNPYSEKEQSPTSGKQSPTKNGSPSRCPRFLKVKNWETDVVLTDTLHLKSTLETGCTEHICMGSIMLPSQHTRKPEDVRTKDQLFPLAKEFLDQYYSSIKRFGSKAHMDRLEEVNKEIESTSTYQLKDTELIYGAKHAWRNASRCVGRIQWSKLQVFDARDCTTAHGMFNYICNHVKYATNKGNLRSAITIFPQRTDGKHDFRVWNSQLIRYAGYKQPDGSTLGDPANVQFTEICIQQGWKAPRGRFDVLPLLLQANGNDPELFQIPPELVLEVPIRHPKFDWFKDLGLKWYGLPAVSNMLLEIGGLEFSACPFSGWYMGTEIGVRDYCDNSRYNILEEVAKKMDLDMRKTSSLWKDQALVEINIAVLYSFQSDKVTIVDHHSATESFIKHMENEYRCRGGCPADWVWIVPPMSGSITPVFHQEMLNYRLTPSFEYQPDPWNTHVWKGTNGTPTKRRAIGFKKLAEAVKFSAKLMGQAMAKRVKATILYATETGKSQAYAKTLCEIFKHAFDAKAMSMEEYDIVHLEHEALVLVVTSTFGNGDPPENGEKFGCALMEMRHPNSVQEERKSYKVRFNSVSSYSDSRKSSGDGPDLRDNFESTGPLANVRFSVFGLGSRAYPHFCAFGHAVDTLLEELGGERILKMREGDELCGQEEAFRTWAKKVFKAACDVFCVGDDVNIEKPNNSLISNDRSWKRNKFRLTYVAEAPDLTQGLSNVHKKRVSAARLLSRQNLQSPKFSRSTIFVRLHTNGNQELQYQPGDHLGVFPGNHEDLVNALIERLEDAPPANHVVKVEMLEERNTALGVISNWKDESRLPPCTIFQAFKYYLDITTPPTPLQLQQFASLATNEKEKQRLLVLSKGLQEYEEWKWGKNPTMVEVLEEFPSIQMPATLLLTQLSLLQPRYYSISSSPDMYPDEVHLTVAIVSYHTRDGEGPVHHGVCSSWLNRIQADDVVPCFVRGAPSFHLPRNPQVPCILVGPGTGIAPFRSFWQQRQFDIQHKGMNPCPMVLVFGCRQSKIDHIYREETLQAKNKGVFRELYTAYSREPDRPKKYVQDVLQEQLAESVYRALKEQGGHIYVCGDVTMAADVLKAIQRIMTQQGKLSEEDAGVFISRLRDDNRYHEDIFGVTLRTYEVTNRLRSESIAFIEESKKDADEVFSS
5-hydroxytryptamine receptor 2B, sequence (P41595 whole entry): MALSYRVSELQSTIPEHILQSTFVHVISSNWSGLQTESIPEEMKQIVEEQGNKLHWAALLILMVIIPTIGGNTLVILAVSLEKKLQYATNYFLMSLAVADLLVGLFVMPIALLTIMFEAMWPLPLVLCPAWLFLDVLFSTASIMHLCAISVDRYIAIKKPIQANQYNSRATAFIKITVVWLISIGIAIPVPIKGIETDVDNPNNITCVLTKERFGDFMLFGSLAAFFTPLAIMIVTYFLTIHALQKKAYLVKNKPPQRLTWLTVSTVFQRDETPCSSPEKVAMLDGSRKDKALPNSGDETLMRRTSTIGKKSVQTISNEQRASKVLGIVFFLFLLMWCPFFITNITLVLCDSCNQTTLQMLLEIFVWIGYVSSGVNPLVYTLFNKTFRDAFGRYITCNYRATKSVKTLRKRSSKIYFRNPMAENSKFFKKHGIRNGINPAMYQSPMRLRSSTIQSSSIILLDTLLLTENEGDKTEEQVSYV

| Structure (SMILES) | IC50 ([1]; hek293) | IC50 [2] | IC50 ([3]; cho-k1) | IC50 [4] | IC50 [5] | IC50 [6] | Ki [6] | IC50 ([7]; insect cells) | IC50 [8] | IC50 [9] | Ki [9] | IC50 ([1]; read-out: IC50) | Ki ([1]; read-out: Ki) | also measured |
| --- | --- | --- | --- | --- | --- | --- | --- | --- | --- | --- | --- | --- | --- | --- |
| O=[N+]([O-])c1cc([As](=O)(O)O)ccc1O [ROXARSONE] | Not Active | Not Active | Not Active | Not Active | Not Active | Not Active | Not Active | Not Active | Not Active | Not Active | Not Active | – | – | Ki ([1]; hek293): Not Active; Ki [2]: Not Active; Ki ([3]; cho-k1): Not Active; Ki [4]: Not Active; Ki [5]: Not Active; Ki ([7]; insect cells): Not Active; Ki [8]: Not Active |
| CC1CN(c2cc3c(cc2F)c(=O)c(C(=O)O)cn3-c2ccc(F)cc2F)CCN1 (stereo not drawn) [TEMAFLOXACIN] | Not Active | Not Active | Not Active | Not Active | Not Active | Not Active | Not Active | Not Active | Not Active | Not Active | Not Active | – | – | – |
| COc1ccc(CCN2CCC(Nc3nc4ccccc4n3Cc3ccc(F)cc3)CC2)cc1 [ASTEMIZOLE] | – | Not Active | – | Not Active | Not Active | – | – | – | Not Active | Not Active | Not Active | 0.769 µM | 0.378 µM | IC50 ([7]; read-out: IC50): 13.1 µM |
| CC1(C)[C@H]2CC[C@]1(C)C(=O)C2 [(-)-CAMPHOR] | Not Active | Not Active | Not Active | Not Active | Not Active | Not Active | Not Active | Not Active | Not Active | Not Active | Not Active | – | – | – |
| CC(CCc1ccccc1)NCC(O)c1ccc(O)c(C(N)=O)c1 (stereo not drawn) [LABETALOL] | – | Not Active | – | Not Active | Not Active | Not Active | Not Active | Not Active | Not Active | Not Active | Not Active | 0.521 µM | 0.256 µM | IC50 ([3]; read-out: IC50): 3.04 µM; Ki ([3]; read-out: Ki): 1.93 µM |
| O=C(CCCN1CCC(O)(c2ccc(Cl)cc2)CC1)c1ccc(F)cc1 [HALOPERIDOL] | – | Not Active | – | Not Active | Not Active | – | – | Not Active | Not Active | Not Active | Not Active | – | – | – |
| CN(C)CCCN1c2ccccc2CCc2ccc(Cl)cc21 [CLOMIPRAMINE] | – | Not Active | – | Not Active | Not Active | – | – | Not Active | Not Active | Not Active | Not Active | 0.18 µM | 0.088 µM | IC50 ([3]; read-out: IC50): 0.239 µM; Ki ([3]; read-out: Ki): 0.152 µM |
| O=C1c2c(O)ccc(O)c2C(=O)c2c(NCCNCCO)ccc(NCCNCCO)c21 [MITOXANTRONE] | Not Active | Not Active | Not Active | Not Active | Not Active | Not Active | Not Active | – | Not Active | – | – | – | – | IC50 ([7]; read-out: IC50): 2.04 µM |
| CN1CCN2c3ccccc3Cc3ccccc3C2C1 (stereo not drawn) [MIANSERIN] | – | Not Active | – | Not Active | Not Active | – | – | Not Active | Not Active | Not Active | Not Active | 0.083 µM | 0.041 µM | – |
| CSc1ccc2c(c1)N(CCC1CCCCN1C)c1ccccc1S2 (stereo not drawn) [THIORIDAZINE] | – | Not Active | – | Not Active | Not Active | – | – | Not Active | Not Active | Not Active | Not Active | 0.00589 µM | 0.0029 µM | – |
| Clc1ccccc1C(c1ccccc1)(c1ccccc1)n1ccnc1 [CLOTRIMAZOLE] | – | Not Active | – | Not Active | Not Active | – | – | – | – | Not Active | Not Active | 15 µM | 7.38 µM | IC50 ([3]; read-out: IC50): 11.6 µM; Ki ([3]; read-out: Ki): 7.38 µM; IC50 ([7]; read-out: IC50): 66.4 µM |
| COC(=O)C1=C(C)NC(C)=C(C(=O)OC)C1c1ccccc1[N+](=O)[O-] [NIFEDIPINE] | Not Active | Not Active | Not Active | Not Active | Not Active | – | – | Not Active | Not Active | – | – | – | – | IC50 ([6]; read-out: IC50): 44.2 µM |
| CC(C)(O)c1ccccc1CC[C@@H](SCC1(CC(=O)O)CC1)c1cccc(/C=C/c2ccc3ccc(Cl)cc3n2)c1 [MONTELUKAST] | Not Active | Not Active | – | Not Active | Not Active | – | – | Not Active | Not Active | Not Active | Not Active | – | – | – |
| COC(=O)[C@@H]1[C@H]2C[C@H]3c4[nH]c5ccccc5c4CCN3C[C@@H]2CC[C@@H]1O [YOHIMBINE] | – | Not Active | – | Not Active | Not Active | Not Active | Not Active | Not Active | Not Active | – | – | – | – | – |
| COc1cccc(C2(O)CCCCC2CN(C)C)c1 (stereo not drawn) [TRAMADOL] | Not Active | Not Active | Not Active | Not Active | Not Active | – | – | Not Active | Not Active | Not Active | Not Active | – | – | – |
| CN[C@@H]1[C@@H](O)[C@@H](O[C@@H]2[C@@H](O)[C@H](O[C@H]3OC(CN)=CC[C@H]3N)[C@@H](N)C[C@H]2N)OC[C@]1(C)O [SISOMICIN] | Not Active | Not Active | Not Active | Not Active | Not Active | Not Active | Not Active | Not Active | Not Active | – | – | – | – | – |
